PubChem BioAssay (NCI)
Where “and” joins values, the source holds several entries; their conditions need not be identical. Identical values can stand only once.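 Results reflect a 48-hour exposure of cells in 96-well plates to compound at five concentrations. GI50: concentration for 50% inhibition of growth. TGI: total growth inhibition.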

How the values were obtained:
Test in all cases: NCI tumour cell line growth inhibition, 48 h
NCI-H460 lung = test system: NCI-H460 lung
SK-MEL-2 melanoma = test system: SK-MEL-2 melanoma
K-562 leukemia = test system: K-562 leukemia
SK-MEL-5 melanoma = test system: SK-MEL-5 melanoma
HOP-62 NSCLC = test system: HOP-62 NSCLC
A498 renal = test system: A498 renal
MCF7 breast = test system: MCF7 breast
TK-10 renal = test system: TK-10 renal
NCI/ADR-RES ovarian = test system: NCI/ADR-RES ovarian
HL-60(TB) leukemia = test system: HL-60(TB) leukemia

Structure (SMILES)	GI50 (NCI-H460 lung)	TGI (NCI-H460 lung)	GI50 (SK-MEL-2 melanoma)	TGI (SK-MEL-2 melanoma)	GI50 (K-562 leukemia)	TGI (K-562 leukemia)	GI50 (SK-MEL-5 melanoma)	TGI (SK-MEL-5 melanoma)	GI50 (HOP-62 NSCLC)	TGI (HOP-62 NSCLC)	GI50 (A498 renal)	TGI (A498 renal)	GI50 (MCF7 breast)	TGI (MCF7 breast)	GI50 (TK-10 renal)	TGI (TK-10 renal)	GI50 (NCI/ADR-RES ovarian)	TGI (NCI/ADR-RES ovarian)	GI50 (HL-60(TB) leukemia)	TGI (HL-60(TB) leukemia)
C=C1C(=O)O[C@H]2[C@H]1CC/C(COC(=O)c1cccc3ccccc13)=C\CC[C@@]1(C)O[C@@H]21	2.16 µM	4.84 µM	1.63 µM	3.38 µM	1.98 µM	14.7 µM	1.62 µM	2.98 µM	1.76 µM	3.68 µM	14.5 µM	28.4 µM	0.722 µM	2.84 µM	1.85 µM	3.42 µM	2.19 µM	6.45 µM	1.66 µM	7.56 µM
C[C@@H](Oc1cc(-c2cnn(C3CC4(CNC4)C3)c2)cnc1N)c1c(Cl)ccc(F)c1Cl	1.98 µM	13.7 µM	3.58 µM	15.1 µM	0.349 µM	5.43 µM	3.92 µM	12.2 µM	2.3 µM	13.4 µM	1.1 µM	4.81 µM	0.532 µM	5 µM	10.3 µM	22.5 µM	14.9 µM	31 µM	1.59 µM	6.76 µM
O=Cc1c[nH]c2ccc(-c3csc4ccccc34)cc12	3.46 µM	> 100 µM	2.65 µM	> 100 µM	1.69 µM	> 100 µM	3.31 µM	> 100 µM	3.06 µM	39.9 µM	2.86 µM	9.44 µM	3.48 µM	> 100 µM	3.13 µM	16.7 µM	4.09 µM	> 100 µM	2.48 µM	8.38 µM
COc1ccc(C2=NNC(c3cc(Cc4ccc(O)c(C5CC(c6ccc(OC)cc6)=NN5)c4)ccc3O)C2)cc1 (centres undefined)	4.88 µM	> 100 µM	5.9 µM	29 µM	7.74 µM	> 100 µM	1.76 µM	6.4 µM	8.64 µM	> 100 µM	71.9 µM	> 100 µM	3.3 µM	15 µM	19.6 µM	> 100 µM	7.39 µM	> 100 µM	23.4 µM	> 100 µM
COc1ccc(/C=C/c2ccnc3ccccc23)cc1	–	47.7 µM	–	38.4 µM	–	23.2 µM	–	27.5 µM	–	35.9 µM	–	27.9 µM	–	31.4 µM	–	31.7 µM	–	33.6 µM	–	20.1 µM
CCc1ccc(Oc2nccc(-c3c(-c4ccc(F)cc4)ncn3C3CCNCC3)n2)cc1	4.28 µM	8.49 µM	5.24 µM	9.48 µM	4.64 µM	10.9 µM	4.22 µM	7.71 µM	4.13 µM	8.53 µM	3.55 µM	9.82 µM	4.39 µM	8.37 µM	4.24 µM	7.93 µM	4.69 µM	12.9 µM	5.78 µM	11.5 µM
Nc1cccc2c1CN(C1CCC(=O)NC1=O)C2=O (centres undefined)	> 100 µM	> 100 µM	> 100 µM	> 100 µM	> 100 µM	> 100 µM	> 100 µM	> 100 µM	> 100 µM	> 100 µM	> 100 µM	> 100 µM	> 100 µM	> 100 µM	> 100 µM	> 100 µM	> 100 µM	> 100 µM	> 100 µM	> 100 µM
O=C1c2cccc3cccc(c23)C(=O)N1CC#Cc1ccc2c3c(cccc13)C(=O)N(CCN1CCNCC1)C2=O	1.92 µM	3.6 µM	18.5 µM	42 µM	1.16 µM	2.75 µM	18.3 µM	36.4 µM	5.09 µM	30.1 µM	15.4 µM	31.1 µM	1.8 µM	3.72 µM	2.61 µM	7.54 µM	> 100 µM	> 100 µM	4.12 µM	> 100 µM
Cc1ccc2c(n1)C(=O)C(Cl)=C(Nc1ccc(N3CCN(C)CC3)cc1)C2=O	3.74 µM	15.7 µM	1.87 µM	3.56 µM	2.72 µM	8.92 µM	1.72 µM	3.1 µM	3.63 µM	14.7 µM	12.8 µM	25.6 µM	2.04 µM	5.17 µM	1.95 µM	3.42 µM	3.09 µM	9.45 µM	2.22 µM	4.89 µM
COc1ccc(Oc2nc(Nc3ccc(N4CCOCC4)cc3)ncc2NC(=O)Nc2cc(OC)cc(OC)c2)cc1	1.31 µM	5.72 µM	4.11 µM	15.9 µM	4.66 µM	> 33.3 µM	1.11 µM	3.79 µM	5.48 µM	22.2 µM	4.75 µM	15 µM	4.97 µM	> 33.3 µM	6.58 µM	> 33.3 µM	> 33.3 µM	> 33.3 µM	10.8 µM	> 33.3 µM
Oc1[nH]c2ccc(Cl)cc2c1/C=c1/ccc2c(c1)N=C(c1ccc(C(F)(F)F)cc1)N=2	1.88 µM	3.82 µM	1.97 µM	3.79 µM	2.6 µM	7.73 µM	1.7 µM	3.31 µM	2.28 µM	4.78 µM	1.32 µM	4.17 µM	2.25 µM	7.64 µM	3.62 µM	9.75 µM	2.6 µM	7.77 µM	2.61 µM	5.55 µM
O=c1[nH]cc(CO)c(=O)[nH]1	> 100 µM	> 100 µM	> 100 µM	> 100 µM	> 100 µM	> 100 µM	> 100 µM	> 100 µM	> 100 µM	> 100 µM	> 100 µM	> 100 µM	> 100 µM	> 100 µM	> 100 µM	> 100 µM	> 100 µM	> 100 µM	> 100 µM	> 100 µM
COC(=O)c1c2c(c(C)[n+]([O-])c1C)C(=O)C=C(NCc1ccc(Br)cc1)C2=O	0.431 µM	1.99 µM	1.55 µM	4.13 µM	0.0472 µM	> 100 µM	0.201 µM	0.435 µM	1.05 µM	2.47 µM	0.904 µM	2.3 µM	0.255 µM	1.07 µM	2.27 µM	5.88 µM	0.332 µM	3.31 µM	0.309 µM	1.5 µM
O=C(NC1CCNCC1)c1[nH]ncc1NC(=O)c1c(Cl)cccc1Cl	0.338 µM and 0.381 µM	> 45.6 µM	0.216 µM and 0.303 µM	0.519 µM and 1.14 µM	0.476 µM and 0.403 µM	> 100 µM	2.44 µM and 0.961 µM	7.67 µM and 5.53 µM	0.451 µM and 0.414 µM	> 100 µM	0.552 µM and 0.698 µM	1.77 µM and 1.78 µM	0.198 µM and 0.18 µM	> 100 µM	1.49 µM and 1.44 µM	6.93 µM and > 10 µM	> 100 µM	> 100 µM	0.305 µM and 0.285 µM	1.09 µM and 1.64 µM
Cc1ccc2nc3sc(=O)sc3nc2c1	–	26.6 µM	–	29 µM	–	75.6 µM	–	29.1 µM	–	30.6 µM	–	20.2 µM	–	31.4 µM	–	30 µM	–	30.9 µM	–	44.1 µM
O=S(=O)(CC(O)C(Cl)(Cl)Cl)NNc1ccccc1 (centres undefined)	–	> 100 µM	–	> 100 µM	–	> 100 µM	–	> 100 µM	–	> 100 µM	–	> 100 µM	–	> 100 µM	–	> 100 µM	–	> 100 µM	–	> 100 µM
O=C1NC(=O)C(N2CCc3ccccc32)=C1c1ccc(Cl)cc1	> 25 µM	> 25 µM	> 25 µM	> 25 µM	> 25 µM	> 25 µM	> 23.2 µM	> 25 µM	> 25 µM	> 25 µM	> 22.4 µM	> 25 µM	> 25 µM	> 25 µM	> 25 µM	> 25 µM	> 25 µM	> 25 µM	24.3 µM	> 25 µM
N#Cc1ccc(N2Cc3cc(Cl)ccc3OC3=C2C(=O)N(Cc2ccc(F)cc2)C3=O)cc1	1.02 µM	3.71 µM	0.314 µM	0.867 µM	0.313 µM	1.68 µM	1.26 µM	2.94 µM	2.72 µM	10.1 µM	3.26 µM	15.3 µM	0.712 µM	3.03 µM	0.567 µM	1.1 µM	0.85 µM	8.58 µM	0.23 µM	0.469 µM
CCOC(=O)c1c(C(F)(F)F)n([O-])c2ccc(Cl)cc2[n+]1=O	2.05 µM	3.99 µM	1.94 µM	4.34 µM	2.2 µM	4.37 µM	1.51 µM	2.96 µM	1.88 µM	3.47 µM	1.73 µM	3.93 µM	1.98 µM	4.24 µM	1.6 µM	3.23 µM	2.8 µM	6 µM	1.93 µM	4.07 µM
Cc1ccc(-c2c3c(N)nc(-c4ccncc4)nc3nc3c2c(C)nn3-c2ccccc2)cc1	6.5 µM	33.6 µM	13.7 µM	> 37.5 µM	5 µM	> 37.5 µM	10.2 µM	> 37.5 µM	0.647 µM	1.95 µM	5.81 µM	> 37.5 µM	3.63 µM	24.4 µM	9.5 µM	25.6 µM	7.5 µM	> 37.5 µM	> 37.5 µM	> 37.5 µM
CCN1CCN(CC(=O)Nc2nc3ccc(NCc4ccc(C)cc4)cc3s2)CC1	2.12 µM	7.71 µM	5.53 µM	12.8 µM	0.949 µM	2.09 µM	0.975 µM	2.01 µM	2.02 µM	8.03 µM	5.27 µM	11.3 µM	1.81 µM	8.41 µM	7.54 µM	15.1 µM	5.98 µM	21.6 µM	1.05 µM	2.25 µM
Cc1cc(Br)c2nsnc2c1[N+](=O)[O-]	3.15 µM	10.7 µM	3.45 µM	8.89 µM	0.968 µM	–	3.88 µM	13.8 µM	4.59 µM	16.3 µM	5.06 µM	15 µM	0.391 µM	3.02 µM	3.72 µM	12.4 µM	4.54 µM	20.7 µM	1.86 µM	4.56 µM
Cc1cc2oc(=O)c(Cl)c(Cl)c2c(C)c1Cl	–	59.9 µM	–	26 µM	–	4.39 µM	–	19.2 µM	–	66 µM	–	34 µM	–	23.5 µM	–	28.3 µM	–	38.4 µM	–	4.93 µM
Cc1cc(C(=O)N2CCN(C)CC2)c2c(=O)n(-c3ccccc3)c(=O)n(CC(O)CN3CCN(c4ncccn4)CC3)c2n1 (centres undefined)	> 100 µM	> 100 µM	> 100 µM	> 100 µM	> 100 µM	> 100 µM	> 100 µM	> 100 µM	> 100 µM	> 100 µM	> 100 µM	> 100 µM	> 100 µM	> 100 µM	> 100 µM	> 100 µM	> 100 µM	> 100 µM	> 100 µM	> 100 µM
[CH3][Sn]([CH3])([CH3])[O]C(=O)C(O)c1ccccc1 (centres undefined)	3.9 µM	> 69.8 µM	2.06 µM	4.51 µM	5.27 µM	> 100 µM	1.83 µM	3.35 µM	2.12 µM	4.4 µM	13.8 µM	63.9 µM	> 100 µM	> 100 µM	> 59.3 µM	> 100 µM	6.39 µM	79.5 µM	4.75 µM	> 40.5 µM
O=C(O)CC1C(=O)OC2C3COC(=O)c4cc(O)c(O)c(O)c4-c4c(cc(O)c(O)c4O)C(=O)OC2C(OC(=O)c2cc(O)c(O)c4c2C1C(O)C(=O)O4)C(OC(=O)c1cc(O)c(O)c(O)c1)O3 (centres undefined)	–	31.4 µM	–	> 100 µM	–	> 100 µM	–	> 100 µM	–	> 100 µM	–	> 100 µM	–	40.6 µM	–	> 100 µM	–	46.9 µM	–	30.4 µM
